Results from patent publication US9561197B2 (Horizon Therapeutics, LLC, priority 2012, dated 2017).
Like-named read-outs stand apart in the source and are kept apart here.

Key:
[1] = Patient 1
[2] = not given; remark: listed apart in the source
[3] = Patient 2

| Compound | episodes of HE (Patient 7, HPN-100 6 mL BID, during 3 months) | ammonia (Patient 7, HPN-100 6 mL BID, follow up after 3 months (blood ammonia 85 μmol/L before therapy)) | unusual symptoms (human, in vivo) | unusual symptoms such as dizziness, headache, or nausea (human, in vivo) | ammonia ([1]; HPN-100 9 mL/day, after overnight fasting) | ammonia ([1]; HPN-100 9 mL/day, midday several hours after lunch) | ammonia ([1]; HPN-100 12 mL/day for one week, after overnight fasting) | ammonia ([1]; HPN-100 12 mL/day for one week, midday) | symptoms (headache, lack of appetite) ([1]; after one week at HPN-100 12 mL/day) | ammonia ([2]; Patient 3, HPN-100 18 mL/day for the past month) | PAGN ([2]; human, in vivo) | complaints ([2]; human, in vivo) | ammonia ([3]; NaPBA 450 mg/Kg/day for one week) | ammonia levels ([3]; NaPBA 600 mg/kg per day) |
| --- | --- | --- | --- | --- | --- | --- | --- | --- | --- | --- | --- | --- | --- | --- |
| O=C(CCCc1ccccc1)OCC(COC(=O)CCCc1ccccc1)OC(=O)CCCc1ccccc1 [HPN-100, glyceryl tri-[4-phenylbutyrate]] | no episodes of HE | 30 µmol/L | did not report any unusual symptoms | had not experienced any unusual symptoms | 55 µmol/L | 117 µmol/L | 9 µmol/L | 35 µmol/L | all symptoms resolved | 22 µmol/L | 259 µg/L | did not have any complaints | – | – |
| sodium phenylbutyrate [NaPBA] | – | – | – | – | – | – | – | – | – | – | – | – | 20 µmol/L | < 9 µmol/L |
